Experimental data taken from article PMC7969932, “Population pharmacokinetics and dose optimization of vancomycin in neonates” (Scientific Reports, 2021).

Tests used:
[1] = Css,trough 15–20 μg/mL, neonates; cited from earlier work
Source text: (§1) There are numerous approaches to determining the adequate dosage regimen of vancomycin in neonates. To reflect PD and PK, area-under-the-curve concentrations versus time to the minimum inhibitory concentrations (AUC: MIC) can be used.

[2] = cited from earlier work
Source text: as §1

[3] = Population pharmacokinetic modeling of vancomycin (NONMEM, one-compartment, first-order elimination; bootstrap, pc-VPC)
Procedure: For the analysis of vancomycin population pharmacokinetic parameters, nonlinear mixed-effect modeling was performed using NONMEM ver. 7.3 (Icon Development Solutions, Ellicott City, MD, USA) in conjunction with Perl Speaks NONMEM (PsN ver. 4.4.0), Pirana (ver. 2.9.7), and Xpose (ver. 4.0) contained in the R software package (ver. 3.5.0; http://www.r-project.org). The population analysis was conducted using the first-order conditional estimation method (FOCE) with ε–η interaction (FOCE INTER). One- and two-compartment models with first-order elimination were evaluated as potential structural pharmacokinetic models. The fixed-effect parameters were total clearance (CL) and volume of distribution (V) for the one-compartment model, and total CL, central V (V1), peripheral V (V2), and inter-compartmental CL (Q) for the two-compartment model. Possible correlations among the interindividual variability for pharmacokinetic parameters in the model were assessed by the OMEGA BLOCK functionality. Allometric scaling was applied to CL and isometric scaling was applied to V to standardize the pharmacokinetic parameters. The final allometric model was as follows: 3 CL=θCL×(WTi/70)^0.75 4 V=θV×(WTi/70)^1 where CL is the clearance in the ith individual with body weight WTi; θCL is the typical CL value in a standardized adult (70 kg); and θv is the typical V in a standardized adult (70 kg). Interindividual variability in the PK parameters was analyzed using exponential and power models. Covariance between interindividual variability was estimated using a variance–covariance matrix. Residual variability was attempted using additive, proportional, and combined models.
Covariates were investigated for the population modeling using linear, proportional, power, and exponential functions. […] When objective function value was decreased by at least 3.84 (χ^2-test, P < 0.05) from the structural model during the forward selection, the covariate was included in the model. All covariates that met the criteria were added to develop the full model. Then, during backward elimination, any covariate with an increase of at least 6.64 (χ^2-test, P < 0.01) was kept in the model. The categorical covariates tested were as follows: sex (where female = 1, male = 0), and types of delivery (where NsvD = 0, Csec = 1). The continuous covariates tested were body weight, blood urea nitrogen, SCr, protein, albumin, neutrophil, AST, ALT, CRP, WBC, height, PMA, PNA, CLcr, and gestational age.
Model validation was performed via three methods: graphical diagnostics using a goodness-of-fit plot, bootstrapping, and a pc-VPC. Individual observed vs. individual-predicted values and conditional weighted residual vs. time or population-predicted values or individual-predicted values were plotted using R for NONMEM. Bootstrap datasets were repeated 1,000 times using the final model; the pc-VPC was performed as a diagnostic plot.

[4] = 1000 resampled data sets (993 successful), per 70 kg

## CN[C@H](CC(C)C)C(=O)N[C@H]1C(=O)N[C@@H](CC(N)=O)C(=O)N[C@H]2C(=O)N[C@H]3C(=O)N[C@H](C(=O)N[C@H](C(=O)O)c4cc(O)cc(O)c4-c4cc3ccc4O)[C@H](O)c3ccc(c(Cl)c3)Oc3cc2cc(c3O[C@@H]2O[C@H](CO)[C@@H](O)[C@H](O)[C@H]2O[C@H]2C[C@](C)(N)[C@H](O)[C@H](C)O2)Oc2ccc(cc2Cl)[C@H]1O [vancomycin]
[1]
  Nephrotoxicity: higher nephrotoxicity
[2]
  Css,trough that could satisfy AUC0-24/MIC ≥ 400 with less toxicity: 5 to 15 µg/mL
  Trough concentrations that can achieve AUC0-24/MIC ≥ 400: around 10 mg/L
[3]; [4]
  θ1, typical value of clearance, Bootstrap median (95% CI): 2.07 (1.94, 2.21) L/h
  θ4, typical value of volume of distribution, Bootstrap median (95% CI): 45.7 (41.6, 50.6) L
[3]; final model
  θ2, power of PMA/31.7 on clearance, Estimate (%RSE): 0.795 (26%)
  θ3, power of CLcr/50.3 on clearance, Estimate (%RSE): 0.741 (6%)
[3]; standardized to 70 kg (power 1), final model
  θ4, typical value of volume of distribution (TVV), Estimate (%RSE): 45.6 (5%) L
